The target in data set [1] is T1, Solute carrier family 2, facilitated glucose transporter member 4 (Rattus norvegicus) (UniProt P19357).
T1 sequence (whole entry): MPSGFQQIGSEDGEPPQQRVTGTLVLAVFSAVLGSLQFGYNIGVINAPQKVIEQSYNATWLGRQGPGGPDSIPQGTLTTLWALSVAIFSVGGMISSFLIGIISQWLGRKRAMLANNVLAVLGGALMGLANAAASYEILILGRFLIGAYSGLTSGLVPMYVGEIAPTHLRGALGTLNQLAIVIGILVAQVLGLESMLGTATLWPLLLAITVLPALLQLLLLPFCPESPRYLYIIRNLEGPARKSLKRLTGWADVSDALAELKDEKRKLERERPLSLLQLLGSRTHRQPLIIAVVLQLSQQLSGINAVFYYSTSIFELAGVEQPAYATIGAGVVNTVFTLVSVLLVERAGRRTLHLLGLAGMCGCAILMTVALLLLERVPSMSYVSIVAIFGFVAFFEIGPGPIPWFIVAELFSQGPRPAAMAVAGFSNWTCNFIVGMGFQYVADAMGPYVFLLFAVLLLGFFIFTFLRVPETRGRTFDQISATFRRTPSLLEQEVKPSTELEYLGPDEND
The data set is described as follows: Induction of GLUT4 translocation in rat L6-GLUT4myc skeletal muscle cells assessed as translocation to cell surface by measuring fold stimulation at 10 uM measured after 16 hrs by antibody-coupled colorimetric assay. Format: cell-based. As to conditions: filed as activator.

The target of data set [2] is T1, Solute carrier family 2, facilitated glucose transporter member 4 (Rattus norvegicus). The data set is described as follows: Induction of GLUT4 translocation in rat L6-GLUT4myc skeletal muscle cells assessed as translocation to cell surface measured after 16 hrs by antibody-coupled colorimetric assay. As to conditions: filed as activator, dose 5-25 µM. Format: cell-based.

The target is the same in data set [3]. The data set is described as follows: Induction of insulin-induced GLUT4 translocation in rat L6-GLUT4myc skeletal muscle cells assessed as translocation to cell surface at 10 uM measured after 16 hrs incubation (final 3 hrs under serum starved medium) followed by stimulated with 100 nM insulin for 20 mins by antibody-coupled colorimetric assay. Format: cell-based. As to conditions: filed as activator, time 980.0 min.

Data set [4] has the same target. The data set is described as follows: Induction of insulin-induced GLUT4 translocation in rat L6-GLUT4myc skeletal muscle cells assessed as translocation to cell surface at 10 uM measured after 16 hrs incubation (final 3 hrs under serum starved medium) followed by stimulated with 100 nM insulin for 20 mins in presence of wortmannin PI3 Kinase inhibitor by antibody-coupled colorimetric assay. Format: cell-based. The settings on record: time 980.0 min.

Data set [5] concerns L6-GLUT4myc. The data set is described as follows: Induction of AKT phosphorylation at Ser 473 residue in rat L6-GLUT4myc skeletal muscle cells at 10 uM measured after 16 hrs by Western blot analysis. Format: cell-based.
The target in data set [6] is 5'-AMP-activated protein kinase catalytic subunit alpha-1 (Rattus norvegicus) (UniProt P54645). The data set is described as follows: Activation of AMPKalpha in rat L6-GLUT4myc cells assessed as induction of AMPKalpha phosphorylation at Thr172 residue at 10 uM measured for 16 hrs by Western blot analysis. Format: cell-based. The settings on record: filed as activator. On the technique in general: A western blot detects proteins with antibodies after separation by electrophoresis.

The subject of data set [7] is L6-GLUT4myc. The data set is described as follows: Effect on GLUT4 expression in rat L6-GLUT4myc cells at 10 uM incubated for 16 hrs by qRT-PCR analysis. Format: functional, cell-based.
For data set [8], the system named is L6-GLUT4myc. The data set is described as follows: Effect on IRS1 expression in rat L6-GLUT4myc cells at 10 uM incubated for 16 hrs by qRT-PCR analysis. Format: functional, cell-based. (In general: In qPCR the cycle at which signal appears reflects the starting amount.)
The subject of data set [9] is L6-GLUT4myc. The data set is described as follows: Effect on AKT2 expression in rat L6-GLUT4myc cells at 10 uM incubated for 16 hrs by qRT-PCR analysis. Format: functional, cell-based.
The subject of data set [10] is Rattus norvegicus. The data set is described as follows: Anti-hyperglycemic activity against STZ-induced diabetic Sprague-Dawley rat model assessed as reduction in blood glucose level at 100 mg/kg, po measured after 5 hrs relative to control. Format: functional. Details: scale not given: the % may be the effect or the level left.
A short description of data set [11]: Stability of compound in simulated physiological fluid at pH 7.4 assessed as parent compound remaining measured after 120 mins by LC-MS/MS analysis. Format: physicochemical. As to conditions: read-out: Stability.
The nature of data set [12]: Stability of compound in simulated gastric fluid at pH 1.2 assessed as parent compound remaining measured after 120 mins by LC-MS/MS analysis. Format: physicochemical. The settings on record: read-out: Stability.
The nature of data set [13]: Stability of compound in simulated intestinal fluid at pH 6.8 assessed as parent compound remaining measured after 120 mins by LC-MS/MS analysis. Format: physicochemical. As to conditions: read-out: Stability.
Data set [14] can be described thus: Thermodynamic solubility of compound in distilled water measured for 24 hrs by HPLC analysis. Format: physicochemical. The settings on record: read-out: Therm_solubility.
Data set [15] in a line: Thermodynamic solubility of compound in HCL buffer at pH 1.2 measured for 24 hrs by HPLC analysis. As to conditions: read-out: Therm_solubility. Format: physicochemical.
The nature of data set [16]: Thermodynamic solubility of compound in tris buffer at pH 7.4 measured for 24 hrs by HPLC analysis. Format: physicochemical. The settings on record: read-out: Therm_solubility.
Data set [17] can be described thus: Metabolic stability in rat liver microsome assessed as half life measured upto 60 mins by HPLC analysis. Format: ADME. The settings on record: microsomes, 1 h. For orientation: Microsomes from liver hold many membrane-bound enzymes, among them those of drug oxidation.
A short description of data set [18]: Metabolic stability in rat liver microsome assessed as intrinsic clearance measured upto 60 mins by HPLC analysis. As to conditions: microsomes, 1 h. Format: ADME.
The target of data set [19] is T1, Solute carrier family 2, facilitated glucose transporter member 4 (Rattus norvegicus). The data set is described as follows: Induction of GLUT4 translocation in rat L6-GLUT4myc skeletal muscle cells assessed as translocation to cell surface by measuring fold stimulation at 500 uM measured after 16 hrs by antibody-coupled colorimetric assay. Format: cell-based. As to conditions: filed as activator.

For data set [20], the system named is Rattus norvegicus. The data set is described as follows: Anti-hyperglycemic activity against STZ-induced diabetic Sprague-Dawley rat model assessed as reduction in blood glucose level at 300 mg/kg, po measured after 5 hrs relative to control. Format: functional. Details: scale not given: the % may be the effect or the level left.

The structures appear in SMILES notation. ≈ marks a conversion by molar mass, not a printed value. Calls of active or inactive are those of the source. The calls are words filed in the database; no cut-off is given here.

5'-AMP-activated protein kinase catalytic subunit alpha-1 (Rattus norvegicus), sequence (P54645 whole entry): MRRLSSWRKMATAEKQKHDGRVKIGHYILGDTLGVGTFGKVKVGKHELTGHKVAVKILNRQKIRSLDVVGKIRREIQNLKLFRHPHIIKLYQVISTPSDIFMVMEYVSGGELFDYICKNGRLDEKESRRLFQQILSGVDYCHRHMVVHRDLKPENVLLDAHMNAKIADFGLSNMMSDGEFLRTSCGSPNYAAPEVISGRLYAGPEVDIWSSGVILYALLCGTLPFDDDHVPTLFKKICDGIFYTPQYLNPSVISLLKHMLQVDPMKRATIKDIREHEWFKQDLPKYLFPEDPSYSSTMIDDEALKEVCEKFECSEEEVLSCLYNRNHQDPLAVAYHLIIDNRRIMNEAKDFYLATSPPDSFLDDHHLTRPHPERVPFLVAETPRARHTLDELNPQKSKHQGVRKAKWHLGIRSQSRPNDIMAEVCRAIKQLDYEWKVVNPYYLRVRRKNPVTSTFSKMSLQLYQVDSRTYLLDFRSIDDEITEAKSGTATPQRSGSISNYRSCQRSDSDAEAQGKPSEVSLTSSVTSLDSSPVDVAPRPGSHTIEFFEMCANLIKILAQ

For `CCn1c(-c2ccc(NC(=O)C3=C(C)NC(=O)NC3c3ccsc3)cc2)nc2ccccc2c1=O` (stereo not given), the fold change (FC) in [1] is 1.29. The same measure, in the same setting: next, `COc1ccc(C2NC(=O)NC(C)=C2C(=O)Nc2cccc(-c3nc4ccccc4c(=O)n3C)c2)cc1OC` (stereo not given): 1.02; `CC1=C(C(=O)Nc2ccc(-c3nc4ccccc4c(=O)n3C)cc2)C(c2ccc(C(F)(F)F)cc2)NC(=O)N1` (stereo not given): 1.54.

As to `CCn1c(-c2ccc(NC(=O)C3=C(C)NC(=O)NC3c3ccc(Cl)cc3)cc2)nc2ccccc2c1=O` (stereo not given), in [1], the fold change (FC) was determined as 1.7. `CC1=C(C(=O)Nc2ccc(-c3nc4ccccc4c(=O)n3C)cc2)C(c2ccccc2Cl)NC(=O)N1` (stereo not given): the fold change (FC) in data set [1] is 1.51. Same read-out and setting: with `CC1=C(C(=O)Nc2cccc(-c3nc4ccccc4c(=O)n3C)c2)C(c2ccc(Cl)cc2Cl)NC(=O)N1` (stereo not given) the figure was 1.14. On the same count and under the same terms, next, `CC1=C(C(=O)Nc2cccc(-c3nc4ccccc4c(=O)n3C)c2)C(c2ccc(F)cc2)NC(=O)N1` (stereo not given): 1.13; `CC1=C(C(=O)Nc2ccc(-c3nc4ccccc4c(=O)n3C)cc2)C(CC(C)C)NC(=O)N1` (stereo not given): 1.14.

For `CC1=C(C(=O)Nc2ccc(-c3nc4ccccc4c(=O)n3C)cc2)C(c2ccc([N+](=O)[O-])cc2)NC(=O)N1` (stereo not given), the fold change (FC) in data set [1] came to 1.21. Same read-out and setting: next, `CC1=C(C(=O)Nc2ccc(-c3nc4ccccc4c(=O)n3C)cc2)C(c2scnc2C)NC(=O)N1` (stereo not given): 1.05. Still for that read-out and setting: with `CC1=C(C(=O)Nc2ccc(-c3nc4ccccc4c(=O)n3C)cc2)C(c2cccs2)NC(=O)N1` (stereo not given) the figure was 1.27; with `CCn1c(-c2ccc(NC(=O)C3=C(C)NC(=O)NC3c3ccco3)cc2)nc2ccccc2c1=O` (stereo not given), 1.32; with `CC1=C(C(=O)Nc2cccc(-c3nc4ccccc4c(=O)n3C)c2)C(c2ccc(Cl)cc2)NC(=O)N1` (stereo not given), 1.17.

As for `CC1=C(C(=O)Nc2cccc(-c3nc4ccccc4c(=O)n3C)c2)C(c2cccs2)NC(=O)N1` (stereo not given), the fold change (FC) in data set [1] was found to be 1.16. Regarding `CCn1c(-c2ccc(NC(=O)C3=C(C)NC(=O)NC3c3scnc3C)cc2)nc2ccccc2c1=O` (stereo not given), the fold change (FC) in data set [1] came out at 1.31.

Consider `CC1=C(C(=O)Nc2ccc(-c3nc4ccccc4c(=O)n3C)cc2)C(c2cccc(Cl)c2)NC(=O)N1` (stereo not given), for which the fold change (FC) in data set [1] worked out at 1.92. For the same compound, the Activity entry in [2] is “Dose-dependent-effect”.

Turning to `CC1=C(C(=O)Nc2ccc(-c3nc4ccccc4c(=O)n3C)cc2)C(c2ccc(C#N)cc2)NC(=O)N1` (stereo not given), the fold change (FC) in data set [1] was determined as 1.1. Turning to `CC1=C(C(=O)Nc2ccc(-c3nc4ccccc4c(=O)n3C)cc2)C(c2ccc(Cl)c(Cl)c2)NC(=O)N1` (stereo not given), the fold change (FC) in data set [1] was 1.63.

On to `CC1=C(C(=O)Nc2ccc(-c3nc4ccccc4c(=O)n3C)cc2)C(c2ccco2)NC(=O)N1` (stereo not given), for which the fold change (FC) in [1] was 1.11. Same read-out and setting: next, `CC1=C(C(=O)Nc2ccc(-c3nc4ccccc4c(=O)n3C)cc2)C(c2ccc(N(C)C)cc2)NC(=O)N1` (stereo not given): 1.08; `CC1=C(C(=O)Nc2cccc(-c3nc4ccccc4c(=O)n3C)c2)C(c2ccc([N+](=O)[O-])cc2)NC(=O)N1` (stereo not given): 1. On the same count and under the same terms, with `CC(=O)CC(=O)Nc1ccc(-c2nc3ccccc3c(=O)n2C)cc1` the figure was 1.24. Regarding `CC1=C(C(=O)Nc2ccc(-c3nc4ccccc4c(=O)n3C)cc2)C(c2ccc(Cl)cc2Cl)NC(=O)N1` (stereo not given), in data set [1], the fold change (FC) amounted to 2.52. For the same compound, the Activity result is “Dose-dependent-effect” in [2]; “No effect” in data set [5]; “No effect” in data set [7]; “No effect” in data set [8]; “No effect” in data set [9]; about 39.5% in [10]. Further, the outcome in data set [3] and in [6] was Active. Besides, in data set [4], the result was inactive. In addition, the remaining at 2 h in data set [11], in data set [12] and in [13] was at least 60% throughout. The solubility thermodynamic at 24 h in data set [14] was 0.36 µg/mL (≈ 0.674 µM); in data set [15], 23.8 µg/mL (≈ 44.6 µM); in data set [16], 0.25 µg/mL (≈ 0.468 µM). In addition, the t1/2 in [17] came to 3.16 min. In addition, in [18], the CLH is 1.336 µL/min/mg. With `CC1=C(C(=O)Nc2ccc(-c3nc4ccccc4c(=O)n3C)cc2)C(c2ccc(Cl)cc2)NC(=O)N1` (stereo not given), the fold change (FC) in data set [1] worked out at 1.7. On the same count and under the same terms, next, `COc1ccc(C2NC(=O)NC(C)=C2C(=O)Nc2ccc(-c3nc4ccccc4c(=O)n3C)cc2)cc1` (stereo not given): 1.28; `CC1=C(C(=O)Nc2cccc(-c3nc4ccccc4c(=O)n3C)c2)C(c2ccco2)NC(=O)N1` (stereo not given): 1.1. Same read-out and setting: next, `CC1=C(C(=O)Nc2ccc(-c3nc4cccc(Cl)c4c(=O)n3C)cc2)C(c2ccc(Cl)cc2Cl)NC(=O)N1` (stereo not given): 1.15.

For the compound `CCn1c(-c2ccc(NC(=O)C3=C(C)NC(=O)NC3c3ccccc3)cc2)nc2ccccc2c1=O` (stereo not given), the fold change (FC) in [1] is 1.32. Still for that read-out and setting: next, `COc1ccc(C2NC(=O)NC(C)=C2C(=O)Nc2ccc(-c3nc4ccccc4c(=O)n3C)cc2)cc1OC` (stereo not given): 1.01.

Regarding `CC1=C(C(=O)Nc2ccc(-c3nc4ccccc4c(=O)n3C)cc2)C(c2ccc(F)cc2)NC(=O)N1` (stereo not given), the fold change (FC) in data set [1] came to 1.27. Turning to `CN(C)C(=N)NC(=N)N` [METFORMIN], in data set [19], the fold change (FC) stood at 1.65. For the same compound, the Activity in [20] is listed as 64.7%.

These data come from ChEMBL document CHEMBL6114990, “Design, synthesis, and biological evaluation of quinazolinone-dihydropyrimidinone as a potential anti-diabetic agent via GLUT4 translocation stimulation” (Eur J Med Chem, 2025).
